Experimental data reported in US8445207B2, “Genes based on thalidomide, valproic acid and methotrexate treatment for screening of drug inducing teratogenicity and screening method using thereof” (priority 2009, dated 2013).

Assays:
[1] = test system: JEG-3 (human placental choriocarcinoma cell line); assay: Oligo microarray gene expression in drug-treated JEG-3 (Cy5 treated / Cy3 control); assay type: cell-based
Method: Thalidomide, valproic acid, and methotrexate were treated to human placental choriocarcinoma cell line at the concentrations determined above (Inhibition concentration: the concentration that can kill approximately 30% of the total cells, that is the concentration of 70% viability, IC30). mRNA was extracted from the drug treated cell line, followed by synthesis of cDNA which was labeled with Cy5. The non-treated control was labeled with Cy3. The fluorescence labeled cDNA was hybridized with 41K (thalidomide), 44K (valproic acid, methotrexate) human whole genome oligomicroarray chips (Agilent, USA), followed by fluorescent image scanning to analyze gene expression patterns (see FIG. 4). Volcano Plot of each substance was also attached. Y axis indicates probability (generally converted by −log 10). X axis indicates differential expression, which is presented by log-ratio.
Total RNA was separated from the treated cell by using trizol reagent (Invitrogen Life Technologies, USA) according to the manufacture's instructions, followed by purification using RNeasy mini kit (Qiagen, USA). Genomic DNA was eliminated during RNA purification using RNase-free DNase set (Qiagen, USA).
30 μg of the total RNA obtained above and 2 μg (1 μg/μl) of oligo (dT) primer were mixed, followed by reaction at 65° C. for 10 minutes. Annealing was performed in ice right after the reaction. Reagents were prepared as shown in Table 1 for reverse transcription of the annealed RNA.
The total RNA separated from the control group JEG-3 cells was labeled with Cy3-dUTP (green) and the total RNA separated from the experiment group JEG-3 cells treated with thalidomide, valproic acid and methotrexate was labeled with Cy5-dUTP (red). At this time, the two samples were mixed and purified by Microcon YM-30 column (Millipore, USA).
Hybridization and washing were performed by the manufacturer's (GenoCheck, Korea) instructions. Particularly, hybridization was performed in a 62° C. oven for 12 hours. As a DNA microarray chip, 44 k whole human genome oligo microarray (Agilent, USA) was used. After washing (2 minutes with 2×SSC/0.1% SDS, three minutes with 1×SSC, 2 minutes with 0.2×SSC), the slide was dried by centrifugation at 800 rpm for 3 minutes.
Hybridization image on the slide was scanned with Genepix 4000B (Axon Instruments, USA). Fluorescence image of the chip on which non-hybridized genes had been washed out was obtained by using laser fluorescence scanner. Green fluorescence image indicates the activity of gene specifically expressed in the control group and red fluorescence image indicates the activity of gene specifically expressed in the experimental group. […] Scanned image was analyzed by using GenePix 4.1 software (Axon Instruments, USA) to calculate gene expression rate.

[2] = test system: JEG-3 (human placental choriocarcinoma cell line); assay: Cytotoxicity test (MTT assay) in JEG-3
[3] = out of 21797 (thalidomide), 21921 (valproic acid), 24006 (methotrexate) genes
[4] = treated at IC30, up-regulated gene, (k) common gene which has no function

CN(Cc1cnc2nc(N)nc(N)c2n1)c1ccc(C(=O)N[C@@H](CCC(=O)O)C(=O)O)cc1 [MTX, methotrexate]
Ratio of intermediate value, KAL1 ([1]; Genbank NM_000216, drug at IC30): 0.43 | Ratio of intermediate value, PMP22 ([1]; Genbank NM_000304, drug at IC30): 0.43 | Ratio of intermediate value, ATR ([1]; Genbank NM_001184, drug at IC30): 0.41 | Ratio of intermediate value, PARP1 ([1]; Genbank NM_001618, drug at IC30): 0.60 | Ratio of intermediate value, AUH ([1]; Genbank NM_001698, drug at IC30): 0.39 | Ratio of intermediate value, CDO1 ([1]; Genbank NM_001801, drug at IC30): 0.45 | Ratio of intermediate value, MGMT ([1]; Genbank NM_002412, drug at IC30): 0.48 | Ratio of intermediate value, NTHL1 ([1]; Genbank NM_002528, drug at IC30): 0.42 | Ratio of intermediate value, UNG ([1]; Genbank NM_003362, drug at IC30): 0.41 | Ratio of intermediate value, EEF1E1 ([1]; Genbank NM_004280, drug at IC30): 0.46 | Ratio of intermediate value, FEZ1 ([1]; Genbank NM_005103, drug at IC30): 0.43 | Ratio of intermediate value, BCAT1 ([1]; Genbank NM_005504, drug at IC30): 0.12 | Ratio of intermediate value, BCKDK ([1]; Genbank NM_005881, drug at IC30): 0.48 | Ratio of intermediate value, POLD2 ([1]; Genbank NM_006230, drug at IC30): 0.29 | Ratio of intermediate value, FARS2 ([1]; Genbank NM_006567, drug at IC30): 0.46 | Ratio of intermediate value, POLG2 ([1]; Genbank NM_007215, drug at IC30): 0.45 | Ratio of intermediate value, ABL1 ([1]; Genbank NM_007313, drug at IC30): 0.49 | Ratio of intermediate value, LIG3 ([1]; Genbank NM_013975, drug at IC30): 0.49 | Ratio of intermediate value, CGI-04 ([1]; Genbank NM_015936, drug at IC30): 0.47 | Ratio of intermediate value, MAPT ([1]; Genbank NM_016835, drug at IC30): 0.38 | Ratio of intermediate value, FLJ10514 ([1]; Genbank NM_018122, drug at IC30): 0.38 | Ratio of intermediate value, LGP1 ([1]; Genbank NM_032484, drug at IC30): 0.49 | Ratio of intermediate value, PSAT1 ([1]; Genbank NM_058179, drug at IC30): 0.31 | Ratio of intermediate value, HARS2 ([1]; Genbank NM_080820, drug at IC30): 0.26 | Ratio of intermediate value, DBN1 ([1]; Genbank NM_080881, drug at IC30): 0.44 | Ratio of intermediate value, ASNS ([1]; Genbank NM_133436, drug at IC30): 0.33 | Ratio of intermediate value, ROBO1 ([1]; Genbank NM_133631, drug at IC30): 0.39 | Ratio of intermediate value, TARSL2 ([1]; Genbank NM_152334, drug at IC30): 0.36 | Ratio of intermediate value, CNTN4 ([1]; Genbank NM_175607, drug at IC30): 0.31 | Ratio of intermediate value, ERCC8 ([1]; Genbank NM_001007233, drug at IC30): 0.41 | Ratio of intermediate value, RAD50 ([1]; Genbank U63139, drug at IC30): 0.36 | Ratio of intermediate value, VARS2 ([1]; Genbank X59303, drug at IC30): 0.33 | Ratio of intermediate value, SR140 ([1]; Genbank XM_031553, drug at IC30): 0.66 | Ratio of intermediate value, LOC389173 ([1]; Genbank XM_371677, drug at IC30): 0.27 | genes down-regulated (ratio of intermediate value less than 0.666) ([1]; JEG-3, drug at IC30, 48 hours): 6.28% | genes up-regulated (ratio of intermediate value more than 1.5) ([1]; JEG-3, drug at IC30, 48 hours): 9.5% | number of genes down-regulated [1, 3]: 1508 | number of genes up-regulated [1, 3]: 2149 | Ratio of intermediate value, gene ATP10B (AB018258, ATPase, Class V, type 10B) [1, 4]: 4.95 | Ratio of intermediate value, gene BQ186674 (cDNA clone UI-E-EJ1-ajr-f-10-0-UI, Hypothetical gene supported by AF086204) [1, 4]: 3.79 | Ratio of intermediate value, gene BX111592 (Transcribed locus, moderately similar to XP_066443.6 PREDICTED: similar to paraneoplastic antigen like 6A) [1, 4]: 9.86 | Ratio of intermediate value, gene CGA (NM_000735, Glycoprotein hormones, alpha polypeptide) [1, 4]: 8.07 | Ratio of intermediate value, gene COBLL1 (BX649112, COBL-like 1) [1, 4]: 4.89 | Ratio of intermediate value, gene CYP19A1 (AK023571, Cytochrome P450, family 19, subfamily A, polypeptide 1) [1, 4]: 2.72 | Ratio of intermediate value, gene FLJ11017 (AK001879, Hypothetical protein FLJ11017) [1, 4]: 4.69 | Ratio of intermediate value, gene GLCCI1 (AK126731, Glucocorticoid induced transcript 1) [1, 4]: 2.84 | Ratio of intermediate value, gene KIAA0310 (AB002308, KIAA0310) [1, 4]: 2.29 | Ratio of intermediate value, gene MGC27016 (AK125877, Hypothetical protein MGC27016) [1, 4]: 1.52 | Ratio of intermediate value, gene NCOA3 (NM_181659, Nuclear receptor coactivator 3) [1, 4]: 2.12 | Ratio of intermediate value, gene RGS2 (BC042755, Regulator of G-protein signalling 2, 24 kDa) [1, 4]: 9.24 | Ratio of intermediate value, gene SIAT7A (BC063830, ST6 (alpha-N-acetyl-neuraminyl-2,3-beta-galactosyl-1,3)-N-acetylgalactosaminide alpha-2,6-sialyltransferase 1) [1, 4]: 15.01 | Ratio of intermediate value, gene SIAT8D (NM_005668, ST8 alpha-N-acetyl-neuraminide alpha-2,8-sialyltransferase 4) [1, 4]: 1.82 | Ratio of intermediate value, gene SLC7A8 (Y18483, Solute carrier family 7 (cationic amino acid transporter, y+ system), member 8) [1, 4]: 3.76 | Ratio of intermediate value, gene SLC40A1 (AK023574, Solute carrier family 40 (iron-regulated transporter), member 1) [1, 4]: 3.06 | Ratio of intermediate value, gene TFCP2L4 (BC036890, Grainyhead-like 3 (Drosophila)) [1, 4]: 4.11 | Ratio of intermediate value, gene TTF2 (AB209845, Transcription termination factor, RNA polymerase II) [1, 4]: 1.94 | Ratio of intermediate value, gene TUBB3 (AK122757, Tubulin, beta 3) [1, 4]: 7.85 | Ratio of intermediate value, gene TncRNA (AF001893, Trophoblast-derived noncoding RNA) [1, 4]: 2.11 | cytotoxicity to JEG-3 ([2]; FIGS. 1, 2 and 3): confirmed to have toxicity | IC30 (concentration shows 70% survival rate) ([2]; JEG-3, 48 hours, MTT, FIG. 1): 4.570 mM
